In US8318641B2, “Systems and methods for the detection of biomarkers” (priority 2010, dated 2012):

B1: Soybeans: primary soybean protease inhibitor, 20.7-22.3 kDa (protein, UniProt P01070 25-205, looked up)
Trypsin inhibitor A: DFVLDNEGNPLENGGTYYILSDITAFGGIRAAPTGNERCPLTVVQSRNELDKGIGTIISSPYRIRFIAEGHPLSLKFDSFAVIMLCVGIPTEWSVVEDLPEGPAVKIGENKDAMDGWFRLERVSDDEFNNYKLVFCPQQAEDDKCGDIGISIDHDDGTRRLVVSKNKPLVVQFQKLDKESL

Key:
peroxidase = assay: Peroxidase assay in saliva (Amplex Red); type: biochemical; conditions: test compound prepared at 500 ppm, 30 minutes, FIGS. 26-29
Description: To determine the effect of various GRAS compounds as inhibitors of peroxidase activity, a standard assay using Amplex® Red (Life Technologies), which releases a fluorescent oxidation product.
The test compounds, such as GRAS materials or cocktails of same, were prepared at a concentration of 500 ppm in distilled water. For the assay, 50 μl samples of test compounds were mixed with 20-30 μl of saliva (either “pooled” or “unpooled”) prior to the addition of Amplex® Red. […] Reactions were allowed to run for 30 minutes during these assays.

α-amylase = target: T1, α-amylase (Homo sapiens, UniProt P0DUB6); assay: α-Amylase inhibition saliva screening (2-chloro-p-nitrophenol-maltotriose substrate, absorbance 405 nm); type: biochemical
T1 sequence (P0DUB6 16-511): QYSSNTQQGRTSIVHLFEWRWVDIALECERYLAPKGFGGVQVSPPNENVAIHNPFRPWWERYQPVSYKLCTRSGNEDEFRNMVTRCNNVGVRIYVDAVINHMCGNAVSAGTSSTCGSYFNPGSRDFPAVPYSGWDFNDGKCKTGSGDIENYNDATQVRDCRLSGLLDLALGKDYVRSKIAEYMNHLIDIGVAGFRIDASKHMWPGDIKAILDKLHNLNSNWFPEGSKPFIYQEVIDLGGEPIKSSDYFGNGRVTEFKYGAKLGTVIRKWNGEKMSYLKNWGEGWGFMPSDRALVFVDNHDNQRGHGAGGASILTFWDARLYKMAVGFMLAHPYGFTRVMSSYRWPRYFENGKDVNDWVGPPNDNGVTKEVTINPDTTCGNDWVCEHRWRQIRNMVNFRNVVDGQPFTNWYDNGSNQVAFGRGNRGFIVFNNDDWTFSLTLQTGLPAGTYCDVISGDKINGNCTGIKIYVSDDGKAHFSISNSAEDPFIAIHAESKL
Excerpt: Further details of these five compounds may also be seen in Table 4.

Lysozyme = target: T2, Lysozyme (Homo sapiens, UniProt P61626); assay: Lysozyme inhibition saliva screening (fluorescein-labeled Micrococcus lysodeikticus); type: biochemical; conditions: 100% saliva samples (data not shown)
T2 sequence (P61626 19-148): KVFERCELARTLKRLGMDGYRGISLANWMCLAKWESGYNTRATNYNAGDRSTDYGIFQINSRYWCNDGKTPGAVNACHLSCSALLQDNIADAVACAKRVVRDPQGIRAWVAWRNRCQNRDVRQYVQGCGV
Excerpt: Further details of these five compounds may also be seen in Table 5.

protease = conditions: cited from earlier work

Row | Molecule | peroxidase inhibition (peroxidase) | Ave (absorbance at 405 nm) (α-amylase; Time 0 min) | also measured
1 | COc1ccc(O)c(C(C)(C)C)c1 [CDI-039, 3-tert--butyl-hydroxyanisole] | significant peroxidase inhibition capabilities | – | –
2 | Aluminum potassium sulfate dodecahydrate [CDI-42] | significant peroxidase inhibition capabilities | 0.92 | –
3 | Aluminum sulfate hydrate [CDI-34] | – | 0.40 | Ave (absorbance at 405 nm) (α-amylase; Time 5 min): 0.50; Ave (absorbance at 405 nm) (α-amylase; Time 15 min): 0.56
4 | CC(=O)O [CDI-047, Acetic acid] | – | – | Lysozyme inhibition (Lysozyme): shown to inhibit Lysozyme
5 | Cn1c(=O)c2c(ncn2C)n(C)c1=O [CDI #33, Caffeine] | significant peroxidase inhibition capabilities | – | –
6 | B1 | – | – | Inhibitory power (protease): 1.2 times times weight
